# Data as given in US20170202782A1 (Abraxis BioScience, LLC, priority 2014, published 2017).
# How the values were obtained:
# [1] = tested on: human pancreatic carcinoma MiaPACA2 xenograft tumors; experiment: CIVO arrayed microinjection into xenografted MiaPACA2 tumors, immunofluorescence (CC3, pHH3)
# Experimental: Microinjections were performed using the CIVO™ arrayed microinjection device (Presage Biosciences, Seattle Wash.). This device enables simultaneous delivery of multiple drug samples, each individually, directly into spatially defined positions within a living tumor. The CIVO device having a 5 needle array was inserted transcutaneously into flank tumors of anesthetized mice.
# 24 hours later, tumors were resected and sectioned across the axis of injection to produce histological sections of tumor that show the 5 different sites of injection.
# Circular regions of interests (ROI) centered on the injection sites were inscribed. Within each ROI, the fraction of cells expressing CC3 was mapped as a function of radial distance from the injection site. To generate radial response plots, calculations were made at 100 micron intervals and were based on all cells within a 100 micron wide band centered at each radial distance. Measurements began at 200 microns to exclude regions directly affected by needle induced injury.
# Tumors from a first set of mice were processed for immunofluorescence analysis with CC3 antibodies 24 hours after injection (FIG. 3A), and tumors from a second set were processed for analysis with CC3 antibodies 48 hours after injection (FIG. 3B). […]
# Bcl-w = target: T1, Bcl-w (Homo sapiens, UniProt Q92843); conditions: cited from earlier work
# T1 sequence (Q92843 1-193): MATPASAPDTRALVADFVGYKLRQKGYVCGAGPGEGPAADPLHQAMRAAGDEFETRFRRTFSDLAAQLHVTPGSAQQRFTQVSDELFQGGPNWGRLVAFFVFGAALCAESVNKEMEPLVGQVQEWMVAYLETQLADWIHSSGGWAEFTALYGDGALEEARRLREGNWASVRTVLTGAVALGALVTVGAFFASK
SMILES,"CC3 positive cells at the site of injection ([1]; MiaPACA2 tumors, 24 hours, diminished with increasing radial distance (FIG. 2))","synergy with Abraxane in inducing tumor cell death ([1]; solid tumor models, combination with Abraxane (summary statement))",Ki (Bcl-w) [nM]
CC1(C)CCC(CN2CCN(c3ccc(C(=O)NS(=O)(=O)c4ccc(NCC5CCOCC5)c([N+](=O)[O-])c4)c(Oc4cnc5[nH]ccc5c4)c3)CC2)=C(c2ccc(Cl)cc2)C1 [ABT-199],increase,not observed,
CC1(C)CCC(c2ccc(Cl)cc2)=C(CN2CCN(c3ccc(C(=O)NS(=O)(=O)c4ccc(N[C@H](CCN5CCOCC5)CSc5ccccc5)c(S(=O)(=O)C(F)(F)F)c4)cc3)CC2)C1 [ABT-263],,,≤ 1
